We go through 28 compounds from patent publication US8741934B2, “Inhibitors of ion channels” (Pfizer Limited, priority 2007, dated 2014).

Bounds are passed on as bounds.

In the assay the target is T1, hSCN3A sodium channels (Homo sapiens, UniProt Q9NY46).
T1 construct: expressed in transfected cells
Briefly: hSCN3A electrophysiology, whole-cell patch-clamp or PatchXpress 7000, estimated IC-50 (Table B). Format: cell-based. The note with it: estimated IC-50; hSCN3A cells, whole-cell patch-clamp or PatchXpress 7000; read-out: SCN3A EIC-50. In short, it runs like this: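 Stably transfected HEK cells, whole-cell voltage clamp at 22-24° C, manual or PatchXpress 7000. Cells held at empirically determined inactivation V1/2; current evoked by 20 msec step to 0 mV after 8 sec prepulse to V1/2.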

T1 sequence (Q9NY46 whole entry): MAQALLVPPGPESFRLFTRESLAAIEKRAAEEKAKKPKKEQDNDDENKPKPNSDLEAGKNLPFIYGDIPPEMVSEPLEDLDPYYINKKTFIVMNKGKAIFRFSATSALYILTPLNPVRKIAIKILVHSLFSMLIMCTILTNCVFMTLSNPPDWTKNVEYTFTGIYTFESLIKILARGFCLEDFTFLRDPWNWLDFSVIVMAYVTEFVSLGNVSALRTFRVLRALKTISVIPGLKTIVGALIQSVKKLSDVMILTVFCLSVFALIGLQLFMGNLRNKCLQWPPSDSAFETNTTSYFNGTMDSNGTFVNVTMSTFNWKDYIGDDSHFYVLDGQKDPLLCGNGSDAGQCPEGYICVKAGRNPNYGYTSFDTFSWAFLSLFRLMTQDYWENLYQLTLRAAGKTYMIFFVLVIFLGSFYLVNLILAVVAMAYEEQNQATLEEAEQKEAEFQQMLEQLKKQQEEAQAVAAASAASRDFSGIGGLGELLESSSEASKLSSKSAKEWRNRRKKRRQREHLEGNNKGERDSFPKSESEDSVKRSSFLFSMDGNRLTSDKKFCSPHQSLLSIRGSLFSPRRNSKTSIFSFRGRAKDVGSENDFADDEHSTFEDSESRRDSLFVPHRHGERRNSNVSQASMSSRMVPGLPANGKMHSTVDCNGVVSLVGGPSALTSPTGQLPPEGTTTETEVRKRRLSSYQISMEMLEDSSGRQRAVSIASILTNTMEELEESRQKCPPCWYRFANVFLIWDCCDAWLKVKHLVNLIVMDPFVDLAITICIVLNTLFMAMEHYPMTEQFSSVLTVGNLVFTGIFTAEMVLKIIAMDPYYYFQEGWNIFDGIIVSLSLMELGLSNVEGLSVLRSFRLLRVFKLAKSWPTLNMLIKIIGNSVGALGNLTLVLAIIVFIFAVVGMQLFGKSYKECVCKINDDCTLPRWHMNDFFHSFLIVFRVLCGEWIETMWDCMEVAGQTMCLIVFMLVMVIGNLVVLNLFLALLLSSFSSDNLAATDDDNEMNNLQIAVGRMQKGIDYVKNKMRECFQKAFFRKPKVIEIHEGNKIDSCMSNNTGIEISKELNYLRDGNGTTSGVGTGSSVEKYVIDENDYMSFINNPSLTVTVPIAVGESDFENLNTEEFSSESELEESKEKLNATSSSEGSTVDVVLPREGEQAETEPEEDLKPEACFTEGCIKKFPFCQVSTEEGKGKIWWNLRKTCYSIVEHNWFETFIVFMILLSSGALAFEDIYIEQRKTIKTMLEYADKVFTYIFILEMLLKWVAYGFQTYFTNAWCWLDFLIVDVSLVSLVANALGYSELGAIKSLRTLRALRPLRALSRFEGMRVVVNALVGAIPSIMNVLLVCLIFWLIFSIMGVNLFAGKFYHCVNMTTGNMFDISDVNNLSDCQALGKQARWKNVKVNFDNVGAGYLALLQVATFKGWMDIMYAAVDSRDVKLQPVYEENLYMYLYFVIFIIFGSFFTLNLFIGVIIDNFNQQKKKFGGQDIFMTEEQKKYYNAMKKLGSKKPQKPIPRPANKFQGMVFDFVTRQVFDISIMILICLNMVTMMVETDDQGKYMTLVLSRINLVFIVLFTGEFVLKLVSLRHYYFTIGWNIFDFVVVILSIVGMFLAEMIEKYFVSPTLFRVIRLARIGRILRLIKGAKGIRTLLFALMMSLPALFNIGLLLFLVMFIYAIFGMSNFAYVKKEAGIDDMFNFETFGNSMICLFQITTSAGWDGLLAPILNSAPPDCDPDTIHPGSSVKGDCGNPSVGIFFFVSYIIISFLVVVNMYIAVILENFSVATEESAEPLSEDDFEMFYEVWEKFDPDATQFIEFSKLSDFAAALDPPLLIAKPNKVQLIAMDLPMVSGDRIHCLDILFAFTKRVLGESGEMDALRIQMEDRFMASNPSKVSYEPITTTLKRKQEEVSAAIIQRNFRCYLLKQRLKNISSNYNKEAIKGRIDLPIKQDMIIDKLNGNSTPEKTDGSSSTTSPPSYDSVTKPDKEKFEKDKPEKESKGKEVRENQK

In the case of `O=C(c1ccc(S(=O)(=O)Nc2nccs2)cc1)N1CCCC(Cc2ccc(F)cc2)C1` (stereo not shown) [Example 222, 4-{[3-(4-Fluorobenzyl)piperidin-1-yl]carbonyl}-N-1,3-thiazol-2-yl-benzenesulfonamide], the IC50 is 980 nM.
As for `O=C(NCc1ccc(C(F)(F)F)cc1)c1ccc(S(=O)(=O)Nc2ncc(Cl)s2)cn1` [Example 344, 5-{[(5-Chloro-1,3-thiazol-2-yl)amino]sulfonyl}-N-[4-(trifluoromethyl)benzyl]pyridine-2-carboxamide], the figure is 520 nM; as for `O=C(NCc1ccc(Cl)c(F)c1)c1ccc(S(=O)(=O)Nc2nccs2)c(F)c1` [Example 295, N-(4-chloro-3-fluorobenzyl)-3-fluoro-4-[(1,3-thiazol-2-ylamino)sulfonyl]benzamide], 220 nM.
As for `O=C(N[C@H]1C[C@@H]1c1ccccc1)c1ccc(S(=O)(=O)Nc2ncc(Cl)s2)cc1` [Example 42, 4-{[(5-Chloro-1,3-thiazol-2-yl)amino]sulfonyl}-N-[(1S,2R)-2-phenylcyclopropyl]benzamide], the figure is 510 nM; as for `O=C(NCc1ccc(-n2cccn2)cc1)c1ccc(S(=O)(=O)Nc2nccs2)cc1` [Example 60, N-[4-(1H-pyrazol-1-yl)benzyl]-4-[(1,3-thiazol-2-ylamino)sulfonyl]benzamide], 1500 nM.
On to `O=C(NCc1ccc(C(F)(F)F)cc1)c1cccc(S(=O)(=O)Nc2nccs2)c1` [Example 349, 3-[(1,3-Thiazol-2-ylamino)sulfonyl]-N-[4-(trifluoromethyl)benzyl]benzamide], for which the IC50 was 9870 nM.
On to `O=C(NCc1ccc(C(F)(F)F)cc1F)c1ccc(S(=O)(=O)Nc2nccs2)cc1` [Example 397, N-[2-fluoro-4-(trifluoromethyl)benzyl]-4-[(1,3-thiazol-2-ylamino)sulfonyl] benzamide], for which the IC50 was 220 nM.
Under `O=C(NCc1ccc(OC(F)(F)F)c(F)c1)c1ccc(S(=O)(=O)Nc2ncc(Cl)s2)c(Cl)c1` [Example 365, 3-Chloro-4-{[(5-chloro-1,3-thiazol-2-yl)amino]sulfonyl}-N-[3-fluoro-4-(trifluoromethoxy)benzyl]benzamide] stands 600 nM; under `Cc1cnc(NS(=O)(=O)c2ccc(C(=O)NCc3ccc(C(F)(F)F)cc3)cc2)s1` [Example 22, 4-{[(5-methyl-1,3-thiazol-2-yl)amino]sulfonyl}-N-[4-(trifluoromethyl)benzyl] benzamide], 950 nM; under `N#Cc1cc(CNC(=O)c2ccc(S(=O)(=O)Nc3nccs3)cc2)ccc1F` [Example 55, N-(3-cyano-4-fluorobenzyl)-4-[(1,3-thiazol-2-ylamino)sulfonyl]benzamide], 1410 nM.
Under `Cc1csc(NS(=O)(=O)c2ccc(C(=O)NCc3ccc(C(F)(F)F)cc3)cc2)n1` [Example 391, 4-{[(4-methyl-1,3-thiazol-2-yl)amino]sulfonyl}-N-[4-(trifluoromethyl)benzyl] benzamide] stands 1350 nM; under `O=C(NCc1ccc(C(F)(F)F)cc1)c1ccc(S(=O)(=O)Nc2cncs2)cc1` [Example 14, 4-[(1,3-Thiazol-5-ylamino)sulfonyl]-N-[4-(trifluoromethyl)benzyl]benzamide], 28100 nM; under `O=C(NCc1cc(F)cc(F)c1F)c1ccc(S(=O)(=O)Nc2nccs2)cc1` [Example 65, 4-[(1,3-Thiazol-2-ylamino)sulfonyl]-N-(2,3,5-trifluorobenzyl)benzamide], 3840 nM.
Regarding “4-[(1,3-Thiazol-2-ylamino)sulfonyl]-N-(4-isopropyloxybenzyl)benzamide [Example 69]”, the IC50 is 770 nM.
`COc1ccc(CNC(=O)c2ccc(S(=O)(=O)Nc3nccs3)cc2)cc1` [Example 176, N-(4-methoxybenzyl)-4-[(1,3-thiazol-2-ylamino)sulfonyl]benzamide]: the IC50 is 4500 nM.
Under `O=C(NCc1ccc(Cl)c(Cl)c1)c1ccc(S(=O)(=O)Nc2ncc(Cl)s2)c(Cl)c1` [Example 368, 3-Chloro-4-{[(5-chloro-1,3-thiazol-2-yl)amino]sulfonyl}-N-(3,4-dichlorobenzyl) benzamide] stands 400 nM.
Under `O=C(NCc1ccc(C(F)(F)F)cc1)c1ccc(S(=O)(=O)Nc2ncc(Cl)s2)cc1` [Example 1, 4-{[(5-Chloro-1,3-thiazol-2-yl)amino]sulfonyl}-N-[4-(trifluoromethyl)benzyl]benzamide] stands 70 nM; under `O=C(NCc1cc(F)cc(F)c1)c1ccc(S(=O)(=O)Nc2nccs2)cc1` [Example 83, N-(3,5-difluorobenzyl)-4-[(1,3-thiazol-2-ylamino)sulfonyl]benzamide], 620 nM; under `O=C(NCc1ccc(C(F)(F)F)c(Cl)c1)c1ccc(S(=O)(=O)Nc2ncns2)cc1Cl` [Example 374, 2-Chloro-N-[3-chloro-4-(trifluoromethyl)benzyl]-4-[(1,2,4-thiadiazol-5-ylamino)sulfonyl]benzamide], 230 nM.
As for `Cc1noc(C)c1NS(=O)(=O)c1ccc(C(=O)NCc2ccc(C(F)(F)F)cc2)cc1` [Example 26, 4-{[(3,5-Dimethylisoxazol-4-yl)amino]sulfonyl}-N-[4-(trifluoromethyl)benzyl]benzamide], the figure is more than 10000 nM; as for `Cc1ccc(OC2CCCN(C(=O)c3ccc(S(=O)(=O)Nc4nccs4)cc3)C2)cc1` (stereo not shown) [Example 249, 4-{[3-(4-mMethylphenoxy)piperidin-1-yl]carbonyl}-N-1,3-thiazol-2-yl-benzenesulfonamide], 1660 nM; as for `O=C(NCc1ccc(Cl)nc1)c1ccc(S(=O)(=O)Nc2nccs2)cc1` [Example 407, N-[(6-chloropyridin-3-yl)methyl]-4-[(1,3-thiazol-2-ylamino)sulfonyl] benzamide], 1780 nM.
`CC(CNC(=O)c1ccc(S(=O)(=O)Nc2nccs2)cc1)c1ccc(Cl)cc1` (stereo not shown) [Example 133, N-[2-(4-chlorophenyl)propyl]-4-[(1,3-thiazol-2-ylamino)sulfonyl]benzamide]: the IC50 was 1150 nM.
For `CC(C)(C)CCNC(=O)c1ccc(S(=O)(=O)Nc2ncc(Cl)s2)c(F)c1` [Example 389, 4-{[(5-Chloro-1,3-thiazol-2-yl)amino]sulfonyl}-N-(3,3-dimethylbutyl)-3-fluorobenzamide], the IC50 is 610 nM.
On to `Cn1cnc(NS(=O)(=O)c2ccc(C(=O)NCc3ccc(C(F)(F)F)cc3)cc2)n1` [Example 9, 4-{[(1-Methyl-1H-1,2,4-triazol-3-yl)amino]sulfonyl}-N-[4-(trifluoromethyl)benzyl]benzamide], for which the IC50 was more than 10000 nM.
Take `O=C(NCc1ccc(C(F)(F)F)cc1)c1ccc(S(=O)(=O)Nc2ncns2)cc1` [Example 20, 4-[(1,2,4-Thiadiazol-5-ylamino)sulfonyl]-N-[4-(trifluoromethyl)benzyl]benzamide]: the IC50 is 260 nM.
On to `O=C(NCc1ccc(C(F)(F)F)c(Cl)c1)c1ccc(S(=O)(=O)Nc2ncns2)c(F)c1` [Example 317, N-[3-chloro-4-(trifluoromethyl)benzyl]-3-fluoro-4-[(1,2,4-thiadiazol-5-ylamino)sulfonyl]benzamide], for which the IC50 is 40 nM.
As for `CC(C)(NC(=O)c1ccc(S(=O)(=O)Nc2nccs2)cc1)c1cccc(C(F)(F)F)c1` [Example 125, N-{1-methyl-1-[3-(trifluoromethyl)phenyl]ethyl}-4-[(1,3-thiazol-2-ylamino)sulfonyl]benzamide], the figure is 6450 nM.
